# Reference: patent publication US20120094998A1, “Oligomer-Protein Tyrosine Kinase Inhibitor Conjugates” (Nektar Therapeutics, priority 2009, published 2012)
# How the values were obtained:
# [1] = Caco-2 permeability (bi-directional; pH 7.4/pH 7.4); type: in vitro ADME; settings: human; for Papp A→B at 120 min, 10 μM: Caco-2, pH 7.4, read-out: Permeability (cm^2/s × 10^6); for efflux ratio at 120 min, 10 μM: Caco-2, ratio of B-A and A-B permeabilities
# Description: Caco-2 cells are used as an in vitro model of the human intestinal epithelium and permit assessment of the intestinal permeability of potential drugs. Test compound is added to either the apical or basolateral side of a confluent monolayer of Caco-2 cells and permeability is measured by monitoring the appearance of the test compound on the opposite side of the membrane using LC-MS/MS. Apparent permeability (Papp) coefficients, efflux ratio for the test compound and recovery values were determined.
# To measure the permeability of test compound in the apical to basolateral (A-B) and basolateral to apical (B-A) direction across Caco-2 cells.
# Caco-2 cells obtained from the ATCC are used between passage numbers 40-60. Cells are seeded on to Millipore Multiscreen Caco-2 plates at 1×10^5 cells/cm^2. They are cultured for 20 days in DMEM and media is changed every two or three days. On day 20 the permeability study is performed.
# On day 20, the monolayers are prepared by rinsing both basolateral and apical surfaces twice with HBSS at 37° C. Cells are then incubated with HBSS in both apical and basolateral compartments for 40 min to stabilize physiological parameters. HBSS is then removed from the apical compartment and replaced with test compound dosing solutions. […] The fluorescent integrity marker lucifer yellow is also included in the dosing solution. Analytical standards are made from dosing solutions. The apical compartment inserts are then placed into ‘companion’ plates containing fresh HBSS. For basolateral to apical (B-A) permeability determination the experiment is initiated by replacing buffer in the inserts then placing them in companion plates containing dosing solutions. At 120 minutes the companion plate is removed and apical and basolateral samples diluted for analysis by LC-MS/MS. Test compound permeability was assessed in duplicate. On each plate, compounds of known permeability characteristics were run as controls.
# Test and control compounds were quantified by LC-MS/MS cassette analysis using a 5-point calibration with appropriate dilution of the samples. Cyprotex generic analytical conditions were used. The starting concentration (C0) and experimental recovery were calculated from both apical and basolateral compartment concentrations.
# The integrity of the monolayers throughout the experiment was checked by monitoring lucifer yellow permeation using fluorimetric analysis. Lucifer yellow permeation is low if monolayers have not been damaged. […] If lucifer yellow Papp values are above QC limits in both replicate wells for a test compound, the compound was re-tested.
# Data Analysis: The permeability coefficient for each compound (Papp) is calculated from the following equation: […]
# wherein dQ/dt is the rate of permeation of the drug across the cells, C0 is the donor compartment concentration at time zero and A is the area of the cell monolayer. C0 is obtained from analysis of donor and receiver compartments at the end of the incubation period. It is assumed that all of the test compound measured after 120 minutes incubation was initially present in the donor compartment at 0 minutes. An efflux ratio (ER) is derived as follows:
# Talinolol (a known P-gp substrate) is also included as a control compound to assess whether functional P-gp is present in the Caco-2 cell monolayer.
# PDGFRβ = PDGFRβ (Homo sapiens, UniProt P09619); test: Off-chip mobility-shift kinase assay (Caliper LABCHIP), PDGFR; settings: for PDGFR AVG % Activity at 1.0E−06: concentration 1.0E−06; for PDGFR AVG % Activity at 1.0E−07: concentration 1.0E−07; for PDGFR AVG % Activity at 1.0E−08: concentration 1.0E−08; for PDGFR AVG % Activity at 1.0E−09: concentration 1.0E−09; for PDGFR AVG % Activity at 1.0E−10: concentration 1.0E−10; for PDGFR AVG % Activity at 3.0E−06: concentration 3.0E−06; for PDGFR AVG % Activity at 3.0E−07: concentration 3.0E−07; for PDGFR AVG % Activity at 3.0E−08: concentration 3.0E−08; for PDGFR AVG % Activity at 3.0E−09: concentration 3.0E−09; for PDGFR AVG % Activity at 3.0E−10: concentration 3.0E−10
# cKIT = cKIT (Homo sapiens, UniProt P10721); test: Off-chip mobility-shift kinase assay (Caliper LABCHIP), C-kit; settings: for C-kit AVG % Activity at 1.0E−05: concentration 1.0E−05; for C-kit AVG % Activity at 1.0E−06: concentration 1.0E−06; for C-kit AVG % Activity at 1.0E−07: concentration 1.0E−07; for C-kit AVG % Activity at 1.0E−08: concentration 1.0E−08; for C-kit AVG % Activity at 3.0E−05: concentration 3.0E−05; for C-kit AVG % Activity at 3.0E−06: concentration 3.0E−06; for C-kit AVG % Activity at 3.0E−07: concentration 3.0E−07; for C-kit AVG % Activity at 3.0E−08: concentration 3.0E−08; for C-kit AVG % Activity at 3.0E−09: concentration 3.0E−09
# Thermodynamic solubility = type: physicochemical; settings: aqueous buffer, thermodynamic from solid; phosphate buffered saline, pH 7.4; ambient temperature overnight
# Description: Test compound (2.5 mg of solid; n=1) is weighed in a clear glass vial and buffer (0.5 mL) is added (phosphate buffered saline, pH 7.4). The solution is agitated at ambient temperature overnight using a vial roller system. […] Duplicate aliquots (50 μL) are sampled from the filtrate and diluted with one volume of 0.1 N hydrochloric acid and methanol (1:1 v/v) before analysis by HPLC-UV. […] The concentration of test compound in the filtrate is quantified relative to the concentration standard.
# Analysis is performed using a gradient HPLC-UV system with a total cycle time of six minutes.
# ABL = ABL (Homo sapiens, UniProt P00519); test: Off-chip mobility-shift kinase assay (Caliper LABCHIP), ABL; settings: for ABL AVG % Activity at 1.0E−06: concentration 1.0E−06; for ABL AVG % Activity at 1.0E−07: concentration 1.0E−07; for ABL AVG % Activity at 1.0E−08: concentration 1.0E−08; for ABL AVG % Activity at 1.0E−09: concentration 1.0E−09; for ABL AVG % Activity at 1.0E−10: concentration 1.0E−10; for ABL AVG % Activity at 3.0E−06: concentration 3.0E−06; for ABL AVG % Activity at 3.0E−07: concentration 3.0E−07; for ABL AVG % Activity at 3.0E−08: concentration 3.0E−08; for ABL AVG % Activity at 3.0E−09: concentration 3.0E−09; for ABL AVG % Activity at 3.0E−10: concentration 3.0E−10; for ABL AVG % Activity at 1.0E−11: concentration 1.0E−11; for ABL AVG % Activity at 3.0E−11: concentration 3.0E−11
# [2] = imatinib-corresponding compounds
# [3] = dasatinib-corresponding compounds
# Chain of cKIT (P10721 26-976): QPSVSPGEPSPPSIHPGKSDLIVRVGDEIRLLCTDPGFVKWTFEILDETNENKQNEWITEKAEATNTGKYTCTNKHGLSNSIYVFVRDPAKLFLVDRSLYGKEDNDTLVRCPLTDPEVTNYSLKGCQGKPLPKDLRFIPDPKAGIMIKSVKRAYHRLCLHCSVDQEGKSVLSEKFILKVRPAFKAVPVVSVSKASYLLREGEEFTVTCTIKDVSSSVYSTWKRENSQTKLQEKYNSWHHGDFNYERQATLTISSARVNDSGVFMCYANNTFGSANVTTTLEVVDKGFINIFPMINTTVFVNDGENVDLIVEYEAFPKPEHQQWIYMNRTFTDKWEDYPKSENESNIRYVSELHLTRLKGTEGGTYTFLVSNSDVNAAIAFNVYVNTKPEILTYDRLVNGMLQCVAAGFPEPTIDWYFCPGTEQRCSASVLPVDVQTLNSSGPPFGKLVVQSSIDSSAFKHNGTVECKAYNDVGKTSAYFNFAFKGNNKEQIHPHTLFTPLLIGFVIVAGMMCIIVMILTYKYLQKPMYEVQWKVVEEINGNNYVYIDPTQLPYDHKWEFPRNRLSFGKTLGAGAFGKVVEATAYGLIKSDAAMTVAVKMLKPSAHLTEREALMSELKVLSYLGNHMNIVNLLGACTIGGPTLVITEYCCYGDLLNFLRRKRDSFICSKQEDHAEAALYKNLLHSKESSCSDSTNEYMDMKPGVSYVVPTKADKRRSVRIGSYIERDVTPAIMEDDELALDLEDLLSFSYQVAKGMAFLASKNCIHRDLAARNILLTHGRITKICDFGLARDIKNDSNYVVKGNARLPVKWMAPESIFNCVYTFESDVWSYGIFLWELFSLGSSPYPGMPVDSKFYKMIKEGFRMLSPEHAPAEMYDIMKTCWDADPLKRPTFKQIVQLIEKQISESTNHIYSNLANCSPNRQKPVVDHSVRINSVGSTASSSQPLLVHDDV
# Chain of PDGFRβ (P09619 33-1106): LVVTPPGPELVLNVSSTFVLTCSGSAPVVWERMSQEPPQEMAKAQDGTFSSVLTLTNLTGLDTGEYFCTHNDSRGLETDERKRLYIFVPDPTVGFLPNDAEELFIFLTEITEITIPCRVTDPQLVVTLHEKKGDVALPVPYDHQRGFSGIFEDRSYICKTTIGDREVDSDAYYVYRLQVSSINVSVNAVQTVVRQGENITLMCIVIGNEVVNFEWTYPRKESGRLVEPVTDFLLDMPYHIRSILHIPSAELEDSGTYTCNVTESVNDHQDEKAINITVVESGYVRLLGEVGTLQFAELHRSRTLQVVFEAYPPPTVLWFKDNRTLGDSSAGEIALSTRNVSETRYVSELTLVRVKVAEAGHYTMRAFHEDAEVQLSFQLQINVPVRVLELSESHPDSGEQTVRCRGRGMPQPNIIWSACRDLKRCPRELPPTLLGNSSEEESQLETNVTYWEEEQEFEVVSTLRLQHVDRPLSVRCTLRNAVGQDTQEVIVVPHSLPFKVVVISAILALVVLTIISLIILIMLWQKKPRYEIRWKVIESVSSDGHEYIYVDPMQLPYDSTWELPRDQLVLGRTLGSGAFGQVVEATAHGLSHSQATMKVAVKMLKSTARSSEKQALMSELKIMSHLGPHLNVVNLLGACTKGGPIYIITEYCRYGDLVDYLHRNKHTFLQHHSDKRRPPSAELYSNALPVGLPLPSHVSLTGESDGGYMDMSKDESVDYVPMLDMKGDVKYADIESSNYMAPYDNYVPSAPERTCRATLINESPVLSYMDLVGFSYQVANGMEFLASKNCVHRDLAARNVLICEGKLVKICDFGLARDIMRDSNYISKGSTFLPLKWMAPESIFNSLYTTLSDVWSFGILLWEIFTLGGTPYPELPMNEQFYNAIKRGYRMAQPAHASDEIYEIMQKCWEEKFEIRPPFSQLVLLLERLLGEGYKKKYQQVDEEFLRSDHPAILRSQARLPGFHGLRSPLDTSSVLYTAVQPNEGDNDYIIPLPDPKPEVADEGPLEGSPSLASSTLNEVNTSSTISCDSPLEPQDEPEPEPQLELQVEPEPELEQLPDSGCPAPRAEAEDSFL
# Chain of ABL (P00519 whole entry): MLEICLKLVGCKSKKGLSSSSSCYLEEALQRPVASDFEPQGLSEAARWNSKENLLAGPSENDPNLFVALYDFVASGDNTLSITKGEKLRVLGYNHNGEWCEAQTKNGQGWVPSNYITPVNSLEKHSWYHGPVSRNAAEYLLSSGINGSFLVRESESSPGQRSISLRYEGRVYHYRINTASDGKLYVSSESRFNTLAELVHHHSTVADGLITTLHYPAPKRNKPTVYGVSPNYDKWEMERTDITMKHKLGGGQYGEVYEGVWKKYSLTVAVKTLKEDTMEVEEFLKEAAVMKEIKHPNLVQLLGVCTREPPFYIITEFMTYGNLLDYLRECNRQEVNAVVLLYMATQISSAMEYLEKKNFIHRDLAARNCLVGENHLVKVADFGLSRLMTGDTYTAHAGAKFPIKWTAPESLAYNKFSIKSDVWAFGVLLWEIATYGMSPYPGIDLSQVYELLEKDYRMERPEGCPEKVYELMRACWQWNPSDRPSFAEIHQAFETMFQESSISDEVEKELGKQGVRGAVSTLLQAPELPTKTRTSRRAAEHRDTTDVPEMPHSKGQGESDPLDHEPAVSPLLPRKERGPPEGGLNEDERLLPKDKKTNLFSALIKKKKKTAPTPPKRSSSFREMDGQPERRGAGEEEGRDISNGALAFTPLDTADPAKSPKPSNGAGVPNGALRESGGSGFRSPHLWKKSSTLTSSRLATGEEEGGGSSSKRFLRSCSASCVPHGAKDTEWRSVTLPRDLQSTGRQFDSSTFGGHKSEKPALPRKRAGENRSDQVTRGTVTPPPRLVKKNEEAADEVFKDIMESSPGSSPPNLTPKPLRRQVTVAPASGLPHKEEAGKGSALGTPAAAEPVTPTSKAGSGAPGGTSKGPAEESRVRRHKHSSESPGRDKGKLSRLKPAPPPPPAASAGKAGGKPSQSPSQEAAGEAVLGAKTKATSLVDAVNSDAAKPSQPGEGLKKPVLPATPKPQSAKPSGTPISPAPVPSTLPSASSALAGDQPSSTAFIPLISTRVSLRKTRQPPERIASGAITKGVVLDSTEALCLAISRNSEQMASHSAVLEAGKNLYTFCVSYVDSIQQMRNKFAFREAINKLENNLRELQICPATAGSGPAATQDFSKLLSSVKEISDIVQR
"Papp A→B at 120 min, 10 μM [1]","efflux ratio at 120 min, 10 μM [1]",IC50 (PDGFRβ),PDGFR AVG % Activity at 1.0E−06 (PDGFRβ),PDGFR AVG % Activity at 1.0E−07 (PDGFRβ),PDGFR AVG % Activity at 1.0E−08 (PDGFRβ),PDGFR AVG % Activity at 1.0E−09 (PDGFRβ),PDGFR AVG % Activity at 1.0E−10 (PDGFRβ),PDGFR AVG % Activity at 3.0E−06 (PDGFRβ),PDGFR AVG % Activity at 3.0E−07 (PDGFRβ),PDGFR AVG % Activity at 3.0E−08 (PDGFRβ),PDGFR AVG % Activity at 3.0E−09 (PDGFRβ),PDGFR AVG % Activity at 3.0E−10 (PDGFRβ),IC50 (cKIT),C-kit AVG % Activity at 1.0E−05 (cKIT),C-kit AVG % Activity at 1.0E−06 (cKIT),C-kit AVG % Activity at 1.0E−07 (cKIT),C-kit AVG % Activity at 1.0E−08 (cKIT),solubility (Thermodynamic solubility),IC50 (ABL),Compound,further results
0.1 ± 0.04 nm/s,482,0.29 µM,11%,65%,83%,78%,89%,0%,38%,75%,100%,86%,1.6 µM,9%,62%,93%,98%,2.7 mg/mL,≥ 3 µM,COCCOCCOCCOCCOCCOCCOCCOCCOCCNCc1ccc(C(=O)Nc2ccc(C)c(Nc3nccc(-c4cccnc4)n3)c2)cc1 [mPEG9-N-Imatinib],C-kit AVG % Activity at 3.0E−05 (cKIT): 2%; C-kit AVG % Activity at 3.0E−06 (cKIT): 32%; C-kit AVG % Activity at 3.0E−07 (cKIT): 81%; C-kit AVG % Activity at 3.0E−08 (cKIT): 99%; C-kit AVG % Activity at 3.0E−09 (cKIT): 99%; ABL AVG % Activity at 1.0E−06 (ABL; [2]): 77%; ABL AVG % Activity at 1.0E−07 (ABL; [2]): 89%; ABL AVG % Activity at 1.0E−08 (ABL; [2]): 97%; ABL AVG % Activity at 1.0E−09 (ABL; [2]): 96%; ABL AVG % Activity at 1.0E−10 (ABL; [2]): 96%; ABL AVG % Activity at 3.0E−06 (ABL; [2]): 70%; ABL AVG % Activity at 3.0E−07 (ABL; [2]): 85%; ABL AVG % Activity at 3.0E−08 (ABL; [2]): 93%; ABL AVG % Activity at 3.0E−09 (ABL; [2]): 96%; ABL AVG % Activity at 3.0E−10 (ABL; [2]): 96%
10 ± 2 nm/s,–,–,–,–,–,–,–,–,–,–,–,–,–,–,–,–,–,3.3 mg/mL,–,COCCOCCOCCOCCOCCN1CCN(Cc2ccc(C(=O)Nc3ccc(C)c(Nc4nccc(-c5cccnc5)n4)c3)cc2)CC1 [mPEG5-N′-Imatinib],–
–,–,–,–,–,–,–,–,–,–,–,–,–,–,–,–,–,–,–,0.00043 µM,COCCOCCOCCOCC(=O)NC(CC(C)C)C(=O)OCCN1CCN(c2cc(Nc3ncc(C(=O)Nc4c(C)cccc4Cl)s3)nc(C)n2)CC1 (centres unmarked) [mPEG3-Leu-Dasatinib],ABL AVG % Activity at 1.0E−09 (ABL; [3]): 14%; ABL AVG % Activity at 1.0E−10 (ABL; [3]): 85%; ABL AVG % Activity at 1.0E−11 (ABL; [3]): 99%; ABL AVG % Activity at 3.0E−09 (ABL; [3]): 1%; ABL AVG % Activity at 3.0E−10 (ABL; [3]): 62%; ABL AVG % Activity at 3.0E−11 (ABL; [3]): 97%
3 ± 0.1 nm/s,75.7,0.31 µM,18%,76%,91%,98%,95%,0%,43%,91%,93%,100%,2.5 µM,16%,69%,91%,95%,3 mg/mL,≥ 3 µM,COCCOCCOCCOCCOCCOCCOCCN1CCN(Cc2ccc(C(=O)Nc3ccc(C)c(Nc4nccc(-c5cccnc5)n4)c3)cc2)CC1 [mPEG7-N′-Imatinib],C-kit AVG % Activity at 3.0E−05 (cKIT): 4%; C-kit AVG % Activity at 3.0E−06 (cKIT): 44%; C-kit AVG % Activity at 3.0E−07 (cKIT): 84%; C-kit AVG % Activity at 3.0E−08 (cKIT): 97%; C-kit AVG % Activity at 3.0E−09 (cKIT): 95%; ABL AVG % Activity at 1.0E−06 (ABL; [2]): 69%; ABL AVG % Activity at 1.0E−07 (ABL; [2]): 83%; ABL AVG % Activity at 1.0E−08 (ABL; [2]): 92%; ABL AVG % Activity at 1.0E−09 (ABL; [2]): 96%; ABL AVG % Activity at 1.0E−10 (ABL; [2]): 96%; ABL AVG % Activity at 3.0E−06 (ABL; [2]): 52%; ABL AVG % Activity at 3.0E−07 (ABL; [2]): 78%; ABL AVG % Activity at 3.0E−08 (ABL; [2]): 88%; ABL AVG % Activity at 3.0E−09 (ABL; [2]): 96%; ABL AVG % Activity at 3.0E−10 (ABL; [2]): 97%
–,–,–,–,–,–,–,–,–,–,–,–,–,–,–,–,–,–,–,0.00037 µM,COCCOCCOCCOCC(=O)NC(C(=O)OCCN1CCN(c2cc(Nc3ncc(C(=O)Nc4c(C)cccc4Cl)s3)nc(C)n2)CC1)C(C)C (centres unmarked) [mPEG3-Val-Dasatinib],ABL AVG % Activity at 1.0E−09 (ABL; [3]): 10%; ABL AVG % Activity at 1.0E−10 (ABL; [3]): 85%; ABL AVG % Activity at 1.0E−11 (ABL; [3]): 98%; ABL AVG % Activity at 3.0E−09 (ABL; [3]): 0%; ABL AVG % Activity at 3.0E−10 (ABL; [3]): 54%; ABL AVG % Activity at 3.0E−11 (ABL; [3]): 95%
